Reference: a melting point compilation (Tetko et al.; mined from patent text by program, amines drawn as free bases though some values may be those of a salt)

SMILES	melting point
COc1cc(OC)c(C(=O)CC(=O)c2cc(OC)c(OC)c(OC)c2)cc1OC	154 to 156 °C
CNC(=O)c1cccc(F)c1Nc1nc(Nc2ccc3c(c2)C(C)(C)CCC(=O)N3)ncc1Cl	153 °C
N#CC1(NC(=O)c2ccccc2C(=O)O)CCCCC1	154 to 156 °C
COC1=CC(=O)C(=O)C=C1NCCCl	150 to 152 °C
CSc1cc(C)c(O)c(C)c1SC	98 to 100 °C
Cc1cc(-c2ccc(OC(C)C(O)CCc3cccnc3)cc2)ccc1C#N (centres undefined)	93.5 to 94.5 °C
C=C(C)C(=O)OCc1c(Br)c(Br)c(COC(=O)C(=C)C)c(Br)c1Br	148 to 149 °C
COc1cc2c(cc1F)CC/C2=C\C#N	197 to 199 °C
C#Cc1c(C#N)nn(-c2c(Cl)cc(C(F)(F)F)cc2Cl)c1N(C)C	145 to 147 °C
CCCn1c(=O)c2c(nc(C=Cc3cc(OC)c(OC)cc3S(=O)(=O)N(CC)CC)n2C)n(CCC)c1=O	227 to 228 °C
CCOC(=O)CN(C(=O)C(=O)N(CC(=O)OCC)S(=O)(=O)C(F)(F)F)S(=O)(=O)C(F)(F)F	88 to 90 °C
COC(=O)c1cc(NC(C)=O)ccc1O	147 to 148 °C
CCOCS(=O)(=O)c1ccc(C(CC2CCCC2)C(=O)Nc2nc3ccc(OC)nc3s2)cc1 (centres undefined)	158 to 160 °C
CCC(=O)NCc1ccc(NC(=O)/C=C/c2cnn(C)c2-c2ccc(F)cc2)cc1	271 to 272 °C
COC(=O)C(CNC(C)=O)C1CCC(c2ccccc2)CC1 (centres undefined)	75 to 80 °C
O=C(NCCCSc1ccncc1)c1cccs1	112 to 113 °C
CCN(C)C(=O)c1cnn(-c2cccc(C#N)c2)c1C#N	185 to 187 °C
COC(CCCCC(N)=O)OC	57 °C
CC(C)(CO)c1cc(Cl)nnc1Cl	133 to 136 °C
CC1(C)OC(/C=C/c2ccc(Br)cc2)=CC1=O	109 to 110 °C
C=Cc1cc(CC(=O)O)ccc1OCc1ccc2ccccc2n1	173 °C
CCCCOCCc1ccc(C2=CCC(c3ccc(Br)cc3)CC2)cc1 (centres undefined)	86.5 to 89.5 °C
CC(C)(C)[C@H](NC(=O)[C@@H](CC(=O)O)n1ccc(-c2ccc(-c3ccc(C(N)=O)cc3)cc2)c1)C(=O)Nc1ccncc1	194 to 196 °C
COc1cnn(CN(C(=O)CCl)c2c(C)cccc2C)c1	115 to 116 °C
CN(C(=O)C1CCCCC1)c1ccccc1C(c1ccc(O)cc1)c1ccc(O)cc1	250 to 252 °C

SMILES	melting point
Cc1cc(NC(=O)c2c(Cl)cccc2Cl)c2nccc(N3CCN(C)C3=O)c2c1C	213 to 216 °C
COc1cc(C(C)C)c2c(c1)S(=O)(=O)N(COc1cc(C)nn1C)C2=O	146 to 147 °C
C=CC(=O)N1CC(c2ccc(Cl)cc2)Sc2ccccc21 (centres undefined)	122 to 124 °C
CN1C(=O)C(NC(=O)NC23CC4CC(CC(C4)C2)C3)N=C(c2ccccc2)c2ccccc21 (centres undefined)	264 to 265 °C
[N-]=[N+]=NCc1cc(=O)c(OCc2ccccc2)cn1Cc1ccccc1	120 °C
COc1ccc(-c2ccc3cc(C(=O)O)ccc3c2)cc1C12CC3CC(C)(CC(C)(C3)C1)C2	258 to 263 °C
CC(C(=O)O)c1ccc2c(c1)CC(C)(C)C2 (centres undefined)	180 to 183 °C
CC(C)(C)OC(=O)Nc1ccc(-c2ccccc2F)cc1NC(=O)CC(=O)c1cccc(-n2ccnc2)c1	50 to 58 °C
CC(C)C[C@H](NC(=O)OCc1ccccc1)C(=O)NC(C)(C)C(=O)CSCc1ccco1	80 to 82 °C
CN(C)c1nnc(Br)c(=O)[nH]1	261 to 262 °C
CC(C)(C)OC(=O)NCCNC(=O)c1ccc(CO)cc1	117 to 119 °C
Nc1c(Cl)ncnc1Nn1ccc2ccccc21	175 to 176 °C
COc1ccc(-c2c(C)ccn2N2C(=O)c3ccccc3C2=O)c(Cl)c1	202 to 208 °C
CCOC(=O)c1cc2cc(OCCCS(C)(=O)=O)cc([N+](=O)[O-])c2[nH]1	162 to 163 °C
CCCc1c(C(=O)C(C)C)c2ccc(C(=O)O)cc2n1Cc1ccccc1Br	193 to 194 °C
COC(=O)Cc1ccc(N)c(O)c1	112 to 114 °C
Oc1ccc2c(c1)C(n1cc[nH]c1=S)CCC2 (centres undefined)	195 to 196 °C
O=C(O)c1c2c(nc3ccc(F)cc13)-c1ccc(-c3ccccc3)cc1CC2	309 to 310 °C
CC(C)(C)OC(=O)N1CCOC[C@H]1CC(=O)O	82 °C
Cn1nc(C#N)c(Nc2ccc(Cl)cc2[N+](=O)[O-])n1	166 to 168 °C
O=C1Nc2ccccc2C(c2ccccc2)N1CC1CCN(Cc2ccccc2)CC1 (centres undefined)	163 to 165 °C
O=[N+]([O-])c1cccc(S(=O)(=O)Nc2nncs2)c1	189 to 192 °C
COC(=O)c1cc(F)c(F)c2c1NC(C)C2 (centres undefined)	50 to 52 °C
COC(=O)c1cccc(C)c1/C=C/Cc1c(OC)c(C)c2c(c1OC(C)=O)C(=O)OC2	104 to 111 °C
